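Five compound concentrations were applied to cells in 96-well plates for 48 hours; endpoints were derived by simple linear interpolation of the resulting dose-response curve. TGI: concentration producing complete growth inhibition.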
Columns and labels:
Test in all cases: NCI tumour cell line growth inhibition, 48 h
[1] = system: U251 CNS
[2] = system: KM12 colon
[3] = system: NCI-H522 lung
[4] = system: SF-295 CNS
[5] = system: CAKI-1 renal
[6] = system: NCI-H226 lung
[7] = system: EKVX NSCLC
[8] = system: HS 578T breast
[9] = system: COLO 205 colon
[10] = system: 786-0 renal
[11] = system: HOP-62 NSCLC
[12] = system: UACC-62 melanoma
[13] = system: A549 NSCLC
[14] = system: HOP-92 NSCLC
[15] = system: SF-268 CNS
[16] = system: SK-OV-3 ovarian
[17] = system: CCRF-CEM leukemia
[18] = system: HT29 colon
[19] = system: DU-145 prostate
[20] = system: MCF7 breast
[21] = system: UACC-257 melanoma
[22] = system: NCI-H23 lung
[23] = system: HCT-116 colon
[24] = system: SK-MEL-5 melanoma
[25] = system: NCI/ADR-RES ovarian
[26] = system: MDA-MB-435
[27] = system: SNB-19 CNS
[28] = system: BT-549 breast
[29] = system: OVCAR-4 ovarian
[30] = system: SK-MEL-28 melanoma
[31] = system: K-562 leukemia
[32] = system: PC-3 prostate
[33] = system: NCI-H460 lung
[34] = system: UO-31 renal
[35] = system: SN12C renal
[36] = system: T-47D breast
[37] = system: OVCAR-8 ovarian
[38] = system: M14 melanoma
[39] = system: SR leukemia
[40] = system: IGROV1 ovarian
[41] = system: OVCAR-5 ovarian
[42] = system: SNB-75 CNS
[43] = system: ACHN renal
[44] = system: RPMI-8226 leukemia
[45] = system: HCT-15 colon
[46] = system: TK-10 renal
[47] = system: SK-MEL-2 melanoma
[48] = system: MDA-MB-231 breast
[49] = system: SW-620 colon
[50] = system: MALME-3M melanoma
[51] = system: LOX IMVI melanoma
[52] = system: SF-539 CNS
[53] = system: MOLT-4 leukemia
[54] = system: OVCAR-3 ovarian
[55] = system: RXF 393 renal
[56] = system: HCC-2998 colon
[57] = system: A498 renal
[58] = system: HL-60(TB) leukemia

With `CC(C)(C)OC(=O)c1cnc(Cl)cn1` the TGI [1] was over 100 µM, the TGI [2] was over 100 µM and the TGI [3] was 2.78 µM. The TGI [4] was over 100 µM, the TGI [5] was 16.6 µM and the TGI [6] was over 100 µM. For the same compound, the TGI [7] was 64.3 µM, the TGI [8] was over 100 µM and the TGI [9] was over 100 µM. The TGI [10] was over 100 µM, the TGI [11] was over 100 µM and the TGI [12] was over 100 µM. For the same compound, the TGI [13] was over 100 µM, the TGI [14] was 18.4 µM and the TGI [15] was over 100 µM. For the same compound, the TGI [16] was over 100 µM, the TGI [17] was 72.7 µM and the TGI [18] was over 100 µM. The TGI [19] was over 100 µM, the TGI [20] was over 100 µM and the TGI [21] was over 100 µM. The TGI [22] was 55.4 µM, the TGI [23] was over 100 µM and the TGI [24] was over 100 µM. The TGI [25] was over 100 µM, the TGI [26] was over 100 µM and the TGI [27] was over 100 µM. It also gave a TGI [28] of over 100 µM, a TGI [29] of 91.9 µM and a TGI [30] of over 100 µM. The TGI [31] was over 100 µM, the TGI [32] was over 100 µM and the TGI [33] was over 100 µM. The TGI [34] was 18.5 µM, the TGI [35] was over 100 µM and the TGI [36] was over 100 µM. It also gave a TGI [37] of over 100 µM, a TGI [38] of over 100 µM and a TGI [39] of over 100 µM. It also gave a TGI [40] of 44.7 µM, a TGI [41] of over 100 µM and a TGI [42] of over 100 µM. The TGI [43] was 99.6 µM, the TGI [44] was over 100 µM and the TGI [45] was 27.5 µM. For the same compound, the TGI [46] was over 100 µM, the TGI [47] was 80.6 µM and the TGI [48] was over 100 µM. It also gave a TGI [49] of over 100 µM, a TGI [50] of over 100 µM and a TGI [51] of 62.9 µM. It also gave a TGI [52] of over 100 µM and a TGI [53] of over 100 µM.
`Cc1sc2nc(-c3ccc(Cl)c([N+](=O)[O-])c3)c(/C=N/N=C(N)N)n2c1C` gave a TGI [54] of 3.5 µM, a TGI [2] of 1.87 µM and a TGI [55] of 3.13 µM. The TGI [3] was 3.34 µM, the TGI [4] was 3.4 µM and the TGI [7] was 3.14 µM. For the same compound, the TGI [9] was 1.31 µM, the TGI [10] was 1.92 µM and the TGI [11] was 1.7 µM. The TGI [16] was 3.13 µM, the TGI [18] was 2.63 µM and the TGI [25] was 6.59 µM. The TGI [26] was 3.11 µM, the TGI [28] was 3.07 µM and the TGI [30] was 2.18 µM. It also gave a TGI [34] of 3.07 µM, a TGI [36] of 4.76 µM and a TGI [37] of 2.03 µM. The TGI [38] was 3.29 µM, the TGI [40] was 2.44 µM and the TGI [41] was 2.93 µM. It also gave a TGI [43] of 2.77 µM, a TGI [56] of 2640 nM and a TGI [45] of 2.65 µM. For the same compound, the TGI [46] was 3.2 µM, the TGI [50] was 3.68 µM and the TGI [51] was 2.44 µM. It also gave a TGI [52] of 2.99 µM and a TGI [57] of 3.06 µM.
With `CC(C)(C)c1cc(-c2cc(C(C)(C)C)n(-c3ccccc3)n2)nn1-c1ccccc1` the TGI [54] was over 100 µM, the TGI [1] was over 100 µM and the TGI [2] was over 100 µM. The TGI [55] was over 100 µM, the TGI [3] was over 100 µM and the TGI [4] was over 100 µM. The TGI [5] was over 100 µM, the TGI [58] was over 100 µM and the TGI [6] was over 100 µM. It also gave a TGI [7] of over 100 µM, a TGI [9] of over 100 µM and a TGI [10] of over 100 µM. For the same compound, the TGI [11] was over 100 µM, the TGI [12] was over 100 µM and the TGI [13] was over 100 µM. For the same compound, the TGI [14] was over 100 µM, the TGI [15] was over 100 µM and the TGI [16] was over 100 µM. It also gave a TGI [17] of over 100 µM, a TGI [18] of over 100 µM and a TGI [19] of over 100 µM. The TGI [20] was over 100 µM, the TGI [21] was over 100 µM and the TGI [22] was over 100 µM. For the same compound, the TGI [23] was over 100 µM, the TGI [24] was over 100 µM and the TGI [25] was over 100 µM. For the same compound, the TGI [26] was over 100 µM, the TGI [28] was over 100 µM and the TGI [29] was over 100 µM. It also gave a TGI [30] of over 100 µM, a TGI [31] of over 100 µM and a TGI [32] of over 100 µM. For the same compound, the TGI [33] was over 100 µM, the TGI [34] was over 100 µM and the TGI [35] was over 100 µM. It also gave a TGI [36] of over 100 µM, a TGI [37] of over 100 µM and a TGI [38] of over 100 µM. It also gave a TGI [39] of over 100 µM, a TGI [40] of over 100 µM and a TGI [41] of over 100 µM. For the same compound, the TGI [42] was over 100 µM, the TGI [43] was over 100 µM and the TGI [44] was over 100 µM. The TGI [56] was over 100000 nM, the TGI [45] was over 100 µM and the TGI [46] was over 100 µM. The TGI [47] was over 100 µM, the TGI [48] was over 100 µM and the TGI [49] was over 100 µM. For the same compound, the TGI [51] was over 100 µM, the TGI [52] was over 100 µM and the TGI [57] was over 100 µM. For the same compound, the TGI [53] was over 100 µM.

Reference: PubChem BioAssay (NCI)
